Results published in patent publication US10065990B2, “Cyclic peptide compound, and preparation method, pharmaceutical composition and use thereof” (HANGZHOU GUANYU BIO-MEDICAL CO., LTD, priority 2013, dated 2018).
Like-named read-outs stand apart in the source and are kept apart here.

What was measured:
[1] = system: HCC827 (human non-small cell lung cancer cells); experiment: MTT cancer cell growth inhibition; type: cell-based; details: Homo sapiens, HCC827, 72 h, MTT, 72 hours incubation, HCC827 cells; read-out: GI50 HCC827
Text: (§1) MTT assay principle is yellow MTT can penetrate membrane into the cell, succinic dehydrogenase of the mitochondria in living cells can make exogenous MTT reduction of insoluble in water of blue-violet acicular formazan for crystallization and deposition in the cell, crystallization can be dissolved dimethyl sulfoxide (DMSO) solution, detected its absorbance at 490 nm/570 nm wavelength by enzyme-linked immunosorbent assay, which can reflect the number of cells.
(§2) Using DMEM+10% FBS culture medium or using 1640+10% FBS culture, respectively.
(§3) a) Cells were seeded in 96-well plates with the inoculation of 1500/well, 190 μl/hole, 37° C., 5% of CO2 incubator overnight;
(§4) b) The next day each well was added 10 μl of different drugs. The final concentration of drug was 10^−5˜10^−10M, three parallel holes; 37° C., 5% CO2 culture incubator for 72 hours incubation;
(§5) c) Per well was added 20 μl 5 mg/ml of MTT, 37° C., 5% CO2 culture incubator for 4 hours incubation;
(§6) d) The supernatant was discarded. Each well was added 100 μl of DMSO and oscillation;
(§7) e) 570 nm readings. Calculate cell viability. GI50 calculation based on the results.

[2] = system: N-87 (human gastric cancer cells); experiment: MTT cancer cell growth inhibition; type: cell-based; details: Homo sapiens, 72 h, MTT, 72 hours incubation, N-87 cells; read-out: GI50 N-87
Text: as §1, §2, §3, §4, §5, §6, §7

[3] = system: A549 (human lung cancer cells); experiment: MTT cancer cell growth inhibition; type: cell-based; details: Homo sapiens, A549, 72 h, MTT, 72 hours incubation, read-out: GI50 A54
Text: as §1, §2, §3, §4, §5, §6, §7

[4] = system: Huh-7 (human hepatoma cells); experiment: MTT cancer cell growth inhibition; type: cell-based; details: Homo sapiens, Huh-7, 72 h, MTT, 72 hours incubation, Huh-7 cells; read-out: GI50 Huh-7
Text: as §1, §2, §3, §4, §5, §6, §7

[5] = system: KBM-5 (human chronic myelogenous leukemia); experiment: MTT cancer cell growth inhibition; type: cell-based; details: Homo sapiens, KBM5, 72 h, MTT, 72 hours incubation, KBM-5 cells; read-out: GI50 KBM-5
Text: as §1, §2, §3, §4, §5, §6, §7

[6] = system: Bel-7402 (human hepatoma cells); experiment: MTT cancer cell growth inhibition; type: cell-based; details: Homo sapiens, Bel-7402, 72 h, MTT, 72 hours incubation, Bel-7402 cells; read-out: GI50 Bel-7402
Text: as §1, §2, §3, §4, §5, §6, §7

[7] = system: BGC-823 (human gastric cancer cells); experiment: MTT cancer cell growth inhibition; type: cell-based; details: Homo sapiens, BGC-823, 72 h, MTT, 72 hours incubation, read-out: GI50 BG
Text: as §1, §2, §3, §4, §5, §6, §7

[8] = system: KBM5-T315I (human chronic myelogenous leukemia); experiment: MTT cancer cell growth inhibition; type: cell-based; details: Homo sapiens, 72 h, MTT, 72 hours incubation, KBM5-T315I cells; read-out: GI50 KBM5-T315I
Text: as §1, §2, §3, §4, §5, §6, §7

[9] = system: K562 (human leukemia cells); experiment: MTT cancer cell growth inhibition; type: cell-based; details: Homo sapiens, K562, 72 h, MTT, 72 hours incubation, K562 cells; read-out: GI50 K562
Text: as §1, §2, §3, §4, §5, §6, §7

[10] = system: H1975 (non-small cell lung adenocarcinoma); experiment: MTT cancer cell growth inhibition; type: cell-based; details: Homo sapiens, NCI-H1975, 72 h, MTT, 72 hours incubation, H1975 cells; read-out: GI50 H1975
Text: as §1, §2, §3, §4, §5, §6, §7

[11] = system: MCF-7 (human breast cancer cells); experiment: MTT cancer cell growth inhibition; type: cell-based; details: Homo sapiens, MCF7, 72 h, 72 hours incubation, read-out: GI50 MCF
Text: as §1, §2, §3, §4, §5, §6, §7

[12] = system: lncap (prostate cancer cells); experiment: MTT cancer cell growth inhibition; type: cell-based; details: Homo sapiens, LNCaP, 72 h, MTT, 72 hours incubation, read-out: GI50 lnca
Text: as §1, §2, §3, §4, §5, §6, §7

[13] = system: DU145 (human prostate cancer cells); experiment: MTT cancer cell growth inhibition; type: cell-based; details: Homo sapiens, DU-145, 72 h, MTT, 72 hours incubation, read-out: GI50 Du1
Text: as §1, §2, §3, §4, §5, §6, §7

[14] = system: PANC-1 (Pac-1, human pancreatic cancer cells); experiment: MTT cancer cell growth inhibition; type: cell-based; details: Homo sapiens, PANC-1, 72 h, MTT, 72 hours incubation, read-out: GI50 PAN
Text: as §1, §2, §3, §4, §5, §6, §7

[15] = system: SGC-7901 (human gastric cancer cells); experiment: MTT cancer cell growth inhibition; type: cell-based; details: Homo sapiens, SGC-7901, 72 h, MTT, 72 hours incubation, SGC-7901 cells; read-out: GI50 SGC-7901
Text: as §1, §2, §3, §4, §5, §6, §7

[16] = system: HT1080 (human fibrosarcoma cells); experiment: MTT cancer cell growth inhibition; type: cell-based; details: Homo sapiens, HT-1080, 72 h, MTT, 72 hours incubation, read-out: GI50 HT1
Text: as §1, §2, §3, §4, §5, §6, §7

[17] = system: MDA-MB-231 (breast cancer cells); experiment: MTT cancer cell growth inhibition; type: cell-based; details: Homo sapiens, MDA-MB-231, 72 h, read-out: GI50 MDA-MB-231, MTT, 72 hours incubation, MDA-MB-231 cells
Text: as §1, §2, §3, §4, §5, §6, §7

[18] = system: U937 (human leukemia cells); experiment: MTT cancer cell growth inhibition; type: cell-based; details: Homo sapiens, U-937, 72 h, MTT, 72 hours incubation, read-out: GI50 U93
Text: as §1, §2, §3, §4, §5, §6, §7

[19] = system: Hela (human cervical cancer cells); experiment: MTT cancer cell growth inhibition; type: cell-based; details: Homo sapiens, HeLa, 72 h, MTT, 72 hours incubation, read-out: GI50 Hela
Text: as §1, §2, §3, §4, §5, §6, §7

[20] = system: MOLT-4 (human acute lymphoblastic leukemia cells); experiment: MTT cancer cell growth inhibition; type: cell-based; details: Homo sapiens, MOLT-4, 72 h, MTT, 72 hours incubation, read-out: GI50 Mol
Text: as §1, §2, §3, §4, §5, §6, §7

HDAC7 = target: T1, HDAC7 (Homo sapiens, UniProt Q8WUI4); experiment: HDAC biochemical activity measurement (fluorescent substrate deacetylation);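 as to all read-outs here: fluorogenic deacetylation assay using acetyl-lysine substrate at 20 µM, enzyme and compound incubated 30 min at 37 °C, then developer added, fluorescence read at 360/460 nm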; details: for IC50 HDAC7: 37° C. 30 minutes
T1 sequence (Q8WUI4 1-952): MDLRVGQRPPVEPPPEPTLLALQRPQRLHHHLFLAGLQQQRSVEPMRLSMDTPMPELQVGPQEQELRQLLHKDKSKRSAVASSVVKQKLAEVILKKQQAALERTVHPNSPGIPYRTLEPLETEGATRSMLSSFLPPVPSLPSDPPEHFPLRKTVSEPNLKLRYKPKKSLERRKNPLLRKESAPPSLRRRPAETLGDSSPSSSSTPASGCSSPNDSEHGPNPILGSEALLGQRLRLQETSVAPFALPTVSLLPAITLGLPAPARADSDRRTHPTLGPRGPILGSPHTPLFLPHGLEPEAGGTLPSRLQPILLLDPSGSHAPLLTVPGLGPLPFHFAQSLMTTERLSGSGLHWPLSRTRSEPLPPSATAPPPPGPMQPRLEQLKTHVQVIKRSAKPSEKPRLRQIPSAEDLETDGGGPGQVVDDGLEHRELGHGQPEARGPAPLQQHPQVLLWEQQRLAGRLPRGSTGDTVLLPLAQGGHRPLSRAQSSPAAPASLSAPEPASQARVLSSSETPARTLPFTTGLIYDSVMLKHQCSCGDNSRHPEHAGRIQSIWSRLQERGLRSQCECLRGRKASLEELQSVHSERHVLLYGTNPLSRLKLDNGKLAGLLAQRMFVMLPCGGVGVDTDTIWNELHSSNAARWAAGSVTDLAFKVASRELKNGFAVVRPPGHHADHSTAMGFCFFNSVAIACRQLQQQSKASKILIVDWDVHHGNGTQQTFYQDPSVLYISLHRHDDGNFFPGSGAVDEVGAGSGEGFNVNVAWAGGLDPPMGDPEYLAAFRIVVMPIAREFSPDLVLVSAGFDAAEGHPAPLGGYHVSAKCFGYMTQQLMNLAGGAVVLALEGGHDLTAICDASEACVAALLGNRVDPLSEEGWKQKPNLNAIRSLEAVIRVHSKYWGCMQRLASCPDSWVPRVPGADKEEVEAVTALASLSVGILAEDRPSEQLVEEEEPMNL

Compound	GI50 [1] [nM]	GI50 [2] [nM]	GI50 [4] [nM]	GI50 [5] [nM]	GI50 [6] [nM]	GI50 [8] [nM]	GI50 [9] [nM]	GI50 [10] [nM]	GI50 [15] [nM]	GI50 [17] [nM]	GI50 ([3]; A549 cells) [nM]	GI50 ([7]; BGC-823 cells) [nM]	GI50 ([11]; MCF-7 cells) [nM]	GI50 ([12]; lncap cells) [nM]	GI50 ([13]; DU145 cells) [nM]	GI50 ([14]; PANC-1 cells) [nM]	GI50 ([16]; HT1080 cells) [nM]	GI50 ([18]; U937 cells) [nM]	GI50 ([19]; Hela cells) [nM]	GI50 ([20]; MOLT-4 cells) [nM]	other results
CC(C)=C1NC(=O)c2ccc(F)c(n2)CNC(=O)C[C@@H](/C=C/CCS)OC(=O)[C@H](C(C)C)NC1=O [Compound 138]	22	16	36	42	76	45	21	43	72	52	–	–	–	–	–	–	–	–	–	–	GI50 [3]: 40 nM; GI50 [7]: 20 nM; GI50 [11]: 20 nM; GI50 [12]: 50 nM; GI50 [13]: 20 nM; GI50 [14]: 30 nM; GI50 [16]: 20 nM; GI50 [18]: 20 nM; GI50 [19]: 60 nM; GI50 [20]: 50 nM; IC50 HDAC7 (HDAC7): no activity
C/C=C1\NC(=O)c2nc(ccc2SCC)CNC(=O)C[C@@H](/C=C/CCSC(=O)CCCCCC)OC(=O)[C@H](C(C)C)NC1=O [Compound 250]	45	43	27	53	58	79	27	38	63	21	40	40	40	50	50	30	60	80	70	30	IC50 (μM) HDAC7 (HDAC7): no activity
C/C=C1\NC(=O)c2cc(SC)cc(n2)CNC(=O)C[C@@H](/C=C/CCSC(C)=O)OC(=O)[C@H](Cc2cccc3ccccc23)NC1=O [Compound 199]	47	27	35	17	42	29	81	78	67	51	40	90	80	40	50	10	40	30	30	30	IC50 HDAC7 (HDAC7): no activity
C/C=C1\NC(=O)c2nc(ccc2SCC)CNC(=O)C[C@@H](/C=C/CCSC(=O)CCCCC)OC(=O)[C@H](C(C)C)NC1=O [Compound 253]	37	35	72	16	87	78	11	57	18	69	30	50	60	20	20	60	50	30	50	80	IC50 (μM) HDAC7 (HDAC7): no activity
